Laboratory results taken from patent US12396977B2, “Composition for treating degenerative brain diseases, containing 2-pentylfuran as active ingredient” (DAEGU GYEONGBUK INSTITUTE OF SCIENCE AND TECHNOLOGY, priority 2019, dated 2025).
Entries after “also recorded” stand apart in the source; their conditions may differ.

Columns and labels:
[1] = Disease behavior: mouse mobility (movement distance) after IP injection; type: in vivo; conditions: after intraperitoneal (IP) injection
Procedure: It is known that an increase in disease behavior by activation of microglia is due to an increase in secreted cytokines. This experiment was conducted to confirm an increase in disease behavior with an increase in cytokines. The evaluation of disease behavior was made after IP injection of Sup or 2-PF into the mice.
After IP injection, the mouse was placed in a space with four open sides (40×40×40 cm, white field, black wall), and after the position of the mouse was recorded for 30 minutes using a camera, the movement distance was calculated Thereafter, a pseudo-color heat map was drawn using EthoVision XT (Noldus, Netherlands).

Olfr111 = assay: Luciferase assay in Hana3A cells, Olfr111; type: cell-based, mouse; conditions: Hana3A cells
Procedure: Next, Hana3A cells were transfected with RTP1S, and their location and presence on the cell membrane were confirmed as previously described (Behrens et al., 2009; Zhuang and Matsunami, 2008). Such transfection was performed using Lipofectamine 2000 (#11668-019; Thermo Fisher Scientific) according to the manufacturer's instructions. More specifically, the transfected cells were grown on a coverslip (#0101050; Marienfeld) coated with poly D lysine (10 μg/ml; #P7280; Sigma Aldrich). Next, the cells were washed with a warm PBS solution and cooled with ice for 30 minutes to block endocytosis. […] The cells were then incubated with normal horse serum (#008-000-121; Jackson ImmunoResearch) at room temperature for 1 hour. […] After being washed with PBS, the cells were treated with a Cy3-conjugated donkey anti-mouse antibody (1:1,000; #715-165-150; Jackson ImmunoResearch), an Alexa488-conjugated donkey anti-mouse antibody (1:1,000; #715-545-150; Jackson ImmunoResearch), or a Cy3-conjugated donkey anti-rabbit antibody (1:1,000; #711-165-152; Jackson ImmunoResearch) at room temperature for 1 hour. The cells were mounted with a Vectashield fluorescent mounting medium containing DAPI (#H-1200; Vector Laboratories). The expression of heterologous odorant receptors was analyzed with a confocal laser scanning microscope LSM700 and ZEN software (Zeiss).
The Dual-Glo luciferase assay system (#E2940; Promega) was used for odorant receptor ligand screening. More specifically, Hana3A cells were streaked and spread on a white polystyrene 96-well plate (#353296; BD Biosciences) one day before transfection. pCRELuc (1 μg; #219076; Agilent Technologies), pRL-SV40 (1 μg; #E2231; Promega), RTP1S (1 μg), and OR (6 μg; or Mock) vectors were transfected for 24 hours in each plate. Each plate was analyzed using Lipofectamine 2000 (#11668-019; Thermo Fisher Scientific) according to the manufacturer's protocol. Transfected cells were stimulated in CD293 medium (#11913-019; Thermo Fisher Scientific) at 37° C. for 4 hours using diluted odorants at various concentrations. The activity of luciferase was normalized by the activity of Renilla luciferase. The amount of light emitted was measured using a SpectraMax L microplate reader (Molecular Devices).

[2] = system: Hana3A cells expressing Olfr111; assay: Boyden chamber chemotaxis, Hana3A cells expressing Olfr111; type: cell-based; conditions: 2-PF 10, 100, 1000 uM
Procedure: (§1) Cell chemotaxis was measured using a multiwell Boyden chamber. More specifically, a polycarbonate filter (8 μm pore; #101-8; Neuroprobe) was coated with […] fibronectin in PBS (Sigma-Aldrich) for 2 hours, and the coated filter was placed in a Boyden chamber. In addition, the bottom side of the plate was filled with serum-free DMEM containing 2-pentylfuran or a culture supernatant. Next, microglia or Hana3A cells were transfected with an odorant receptor structure and then suspended in serum-free DMEM. Subsequently, microglia and Hana3A cells were allowed to stand at 37° C. for 4 hours and 8 hours, respectively. Cells sinking to the bottom were fixed with 4% PFA, and stained with hematoxylin for 10 minutes. Fixed cells were counted under an optical microscope in 5 randomly selected fixed […] fields (200×) using a scored eyepiece. The chemical chemotaxis index was defined as the number of migrating cells using an untreated group as a standard.

primary microglia [3] = assay: Boyden chamber chemotaxis of primary microglia; type: cell-based, mouse; conditions: 100, 300, and 500 μM
Procedure: as §1

primary microglia [4] = assay: Western blot of phosphorylated signalling proteins in primary microglia; type: cell-based, mouse; conditions: 0, 2, 5, 10, 20, 30 minutes after treatment
Procedure: Cells and tissues were prepared using the T-PER® reagent (#78510; Thermo Fisher Scientific) with protease inhibitors (#04-693-116-001; Roche Molecular Diagnostics), DMSF (Sigma-Aldrich) and lysed using the MagNA Lyser (Roche Molecular Diagnostics). A total protein extract was quantified by the Bradford assay. The sample was dissolved in 7.5% SDS-PAGE or 4 to 20% gradient mini-PROTEIN TGX Precast Gels (#456-1064; Bio-Rad Laboratories), and then blotted onto nitrocellulose membranes (#10600002; GE Healthcare). The membrane was then blocked in 5% skimmed milk powder, TBST, 0.1% TWEEN® 20 (#P9416; Sigma-Aldrich) and Tris-buffered saline for 1 hour, and then incubated with primary antibodies at 4° C. overnight. The antibodies are as follows: Olfr110 (36 kDa; 1:1,000; #ab177327; Abcam), anti rhodopsin (39 kDa; 1:1,000; #MABN15; Millipore), CREB (43 kDa; 1:1,000; #9197; Cell Signaling Technology), phospho-CREB (43 kDa; 1:1,000; #9198; Cell Signaling Technology), ERK (44 kDa; 1:1,000; #sc094; Santa Cruz), phospho-ERK (42, 44 kDa; 1:1,000; #sc-7383; Santa Cruz), phospho-Akt (60 kDa; 1:500; sc-293125; Santa Cruz), phospho-JNK (46, 54 kDa; 1:500; sc-6254; Santa Cruz), phosphor-p38 (38 kDa; 1:1,000; sc-7973; Santa Cruz), or beta-Actin (45 kDa; 1:10,000; #4967; Cell Signaling Technology). Furthermore, an isotype-matched horseradish peroxidase-conjugated secondary antibody was used at 1:100,000 with anti-rabbit in TBST (#711-035-152; Jackson ImmunoResearch) and 1:40,000 with anti-mouse (#715-035-150; Jackson ImmunoResearch) at room temperature for 2 hours. As an immunoreactive protein band, SuperSignal™ West Pico Chemiluminescent Substrate (#34080; Thermo Fisher Scientific) was used.

CCCCCc1ccco1 [2-PF, 2-pentylfuran]
mobility of the mouse (total movement distance) [1]: concentration-dependent decrease
reactivity of Olfr111 (relative luciferase activity) (Olfr111): particularly strong reactivity; also recorded: highest reactivity
mobility (chemotaxis) of Olfr111-expressing Hana3A cells [2]: increased in mobility in a concentration-dependent manner
chemotaxis of microglia (primary microglia [3]): significantly increased in a concentration-dependent manner
phosphorylation levels of ERK, p38, JNK, and Akt (primary microglia [4]): increased from 2 minutes and stopped increasing at 20 minutes
